Active and inactive are the calls of the source. The rule behind the calls is not given here.
Columns and labels:
Lipid bilayer = test: Binding affinity to bacterial membrane mimic POPG large unilamellar vesicle assessed as hyperchromic shift at 125 uM measured after 1 hr by UV-Vis spectrophotometric analysis
[1] = Apparent permeability of the compound across bacterial inner membrane mimic PC-phospholipids in PBS buffer at pH 7.4 incubated for 5 hrs by PAMPA based UV-Vis spectrophotometric analysis; format: ADME
Cell membrane [2] = test: Disruption of membrane integrity in Staphylococcus aureus ATCC 25923 assessed as increase in PI uptake at 16 ug/ml measured every 15 mins for 6 hrs by SYTO9/PI staining based fluorometric analysis; format: subcellular; details: dose 16.0 µg/ml
Cell membrane [3] = test: Disruption of membrane integrity in Pseudomonas aeruginosa ATCC 27853 assessed as increase in PI positive cells at 16 ug/ml measured after 1 hr by SYTO9/PI staining based confocal laser scanning microscope analysis; format: subcellular; details: dose 16.0 µg/ml
[4] = Hemolytic activity against human RBC at 4 ug/ml incubated for 30 mins (reference value: 0%); format: toxicity, cell-based, Erythrocyte; details: human red blood cells (erythrocytes), at 4 µg/mL, read-out: Activity
[5] = Hemolytic activity against human RBC at 64 ug/ml incubated for 30 mins (reference value: 0%); format: toxicity, cell-based, Erythrocyte; details: human red blood cells (erythrocytes), at 64 µg/mL, read-out: Activity
Cell membrane [6] = test: Disruption of membrane integrity in Acinetobacter baumannii ATCC 17978 assessed as increase in PI uptake at 16 ug/ml measured after 1 hr by SYTO9/PI staining based fluorometric analysis; format: subcellular; details: dose 16.0 µg/ml
Cell membrane [7] = test: Disruption of membrane integrity in Bacillus subtilis ATCC 6633 assessed as increase in PI uptake at 16 ug/ml measured after 1 hr by SYTO9/PI staining based fluorometric analysis; format: subcellular; details: dose 16.0 µg/ml
Cell membrane [8] = test: Disruption of membrane integrity in Enterococcus faecalis ATCC 19433 assessed as increase in PI uptake at 16 ug/ml measured after 1 hr by SYTO9/PI staining based fluorometric analysis; format: subcellular; details: dose 16.0 µg/ml

| Structure (SMILES) | Activity (Lipid bilayer) | Papp at 5 h [1] [×10⁻⁶ cm/s] | Activity (Cell membrane [2]) | Activity (Cell membrane [3]) | hemolysis at 0.5 h, 4 ug/ml [4] [%] | hemolysis at 0.5 h, 64 ug/ml [5] [%] | Activity (Cell membrane [6]) | Activity (Cell membrane [7]) | Activity (Cell membrane [8]) |
| --- | --- | --- | --- | --- | --- | --- | --- | --- | --- |
| N=C(N)NCCCCCCCCN(CCCCCCCCNC(=N)NCC1CC1)C(=O)N(CCCCCCCCNC(=N)NCC1CC1)CCCCCCCCNC(=N)NCC1CC1.O=C(O)C(F)(F)F | Active | 1.85 | Active | Active | 0 | 8.1 | Active | Active | Active |
| N=C(NCCCCCCCCNC(N)=O)NCC1CC1.O=C(O)C(F)(F)F | Active | 3.17 | Active | Active | 0 | 0 | Active | Active | Active |
| CCCCCCCCN(CCCCCCCCNC(=N)NCC1CC1)C(=O)N(CCCCCCNC(=N)NCC1CC1)CCCCCCNC(=N)NCC1CC1 | Active | 4.79 | Active | Active | 0.5 | 46.4 | Active | Active | Active |
